The numbers were not newly measured in US20250134875A1, “FORMULATIONS OF ALK-5 KINASE INHIBITORS AND USES THEREOF” (Thirona Bio, Inc., priority 2023, published 2025), which cites them from elsewhere.

Data set [1] deals with mouse fibroblasts and fat precursor cells. To be noted: cited from earlier work.
The subject of data set [2] is fibroblasts derived from human PD plaque. To be noted: cited from earlier work.
For a further data set, the system named is rat PD models. To be noted: cited from earlier work.
The subject of data set [3] is TGF-β-induced expression of ACTA2, Col1a1 and Col3a1. To be noted: 3D culture model of DC-specimens; cited from earlier work.
The next data set concerns mouse skin. To be noted: cited from earlier work.
The subject of a further data set is A549 cells. To be noted: cited from earlier work.
The subject of data set [4] is human outer root sheath cells. The following applies: cited from earlier work.
A further data set addresses T1, TNF (Homo sapiens, UniProt P01375).
T1 construct: host or cells: Dupuytren's nodules of patients (in vivo, endogenous)
The following applies: cited from earlier work.

The next data set deals with TGF-β. To be noted: cited from earlier work.

T1 sequence (P01375 77-233 limits assumed): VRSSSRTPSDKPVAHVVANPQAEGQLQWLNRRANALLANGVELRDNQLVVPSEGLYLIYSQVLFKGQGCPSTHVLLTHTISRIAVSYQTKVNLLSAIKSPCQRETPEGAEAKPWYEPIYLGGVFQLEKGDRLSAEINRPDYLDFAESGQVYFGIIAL

For the molecule `Cc1cccc(-c2nn(C(=S)Nc3ccccc3)cc2-c2ccnc3ccccc23)n1` [Formulation A83-01], in [1], the Brown fat adipogenesis result is recorded as “induced brown fat adipogenesis”.

With `Cc1cccc(-c2[nH]c(Cc3cccc(C(N)=O)c3)nc2-c2ccc3nccnc3c2)n1` [IN-1130], in [2], the “TGF-β1-induced production of PAI-1, fibronectin, collagen 1 and collagen 4” value is “significantly reduced”. Further, in the data set on rat PD models, the Curvature and fibrosis entry was “improved curvature and fibrosis”.

As to `Cc1cccc(-c2nn3c(c2-c2ccnc4ccc(C(N)=O)cc24)CCC3)n1` [LY2157299], in data set [1], the Brown fat adipogenesis result was “induced brown fat adipogenesis”.

Take `NC(=O)c1ccc(-c2nc(-c3ccc4c(c3)OCO4)c(-c3ccccn3)[nH]2)cc1` [SB-431542]: in [1], the Brown fat adipogenesis entry is recorded as “induced brown fat adipogenesis”. Also, the “TGF-β-induced expression of ACTA2, Col1a1 and Col3a1” value in [3] is recorded as “suppressed”.

Regarding `Cc1csc(-c2[nH]cnc2-c2ccc3ncsc3c2)n1` [TP0427736], in the data set with mouse skin (repeated topical application), the “Average hair follicle length during transition from late anagen to catagen phase” value was “suppressed the shortening”. Further, the “Smad2 phosphorylation in mouse skin” value with mouse skin (topical application) is reported as “significantly decreased”. For the same molecule, the Smad2/3 phosphorylation entry with A549 cells is “inhibited”. In data set [4], the “Growth inhibition of human outer root sheath cells” value is given as “decreased the growth inhibition”.

In the case of `COc1ccc(/C=C/C(=O)Nc2ccccc2C(=O)O)cc1OC` [Tanilast], in data set [1], the Brown fat adipogenesis entry is “induced brown fat adipogenesis”.

On to adalimumab, for which the Phenotype of myofibroblasts result on TNF (Phase 2a trial, intranodular) is “downregulated the phenotype of myofibroblasts”. On TNF (Phase 2b trial), the “Nodule harness and size by ultrasound” value was “decreased nodule harness and size”.

For the molecule “fresolimumab: TGF-β neutralizing antibody which targets all three TGF-β isoforms”, the “Clinical skin disease (fibrosis), modified Rodnan skin score (MRSS)” value in the data set on TGF-β (systemic sclerosis patients (N=15), 1 mg/kg twice or 5 mg/kg once, p=0.0002 within 3 weeks) is “dramatically reversed”. In addition, in the data set with TGF-β (systemic sclerosis patients), the “Pro-fibrotic TGF-β gene expression profiles in the skin” value is “decreased” and the Systemic side effects entry is on record as “significant systemic side effects, notably bleeding”.
